Reference: patent US11771706B2, “Oral solutions comprising fludrocortisone acetate” (LABOMED PHARMACEUTICAL COMPANY S.A., priority 2020, dated 2023)

How the values were obtained:
[1] = Storage stability of aqueous liquid compositions of fludrocortisone acetate (Example 1), HPLC; type: physicochemical; settings: conclusion from Tables 1a-1c, 40° C., 75% RH, three months
Protocol: Storage conditions of temperature (40° C.) and relative humidity (75%) applied for a period of three months. Quantification of fludrocortisone acetate and its degradation impurities was performed by HPLC.

[2] = relative to cortisol; cited from earlier work

- stability of fludrocortisone acetate in aqueous compositions [1]: unstable and easily hydrolyzed
Structure (SMILES): CC(=O)OCC(=O)[C@@]1(O)CC[C@H]2[C@@H]3CCC4=CC(=O)CC[C@]4(C)[C@@]3(F)[C@@H](O)C[C@@]21C [Fludrocortisone acetate]
- glucocorticoid potency [2]: 10 times
